Test results from PMC12195740, “Discovery of Novel Imidazothiazole-Based Hydroxamic Acid Derivatives as Potent Indoleamine 2,3-Dioxygenase 1 and Histone Deacetylase 6 Dual Inhibitors” (Molecules, 2025).

How the values were obtained:
HCT-116 cells = experiment: Cell viability (MTT) assay, HCT-116; settings: Homo sapiens, HCT-116, 48 h, read-out: Antiproliferative IC50, HCT-116
Experimental: Section S 1.3 Cell viability assays
(§1) Cell Bank at the Chinese Academy of Sciences.
(§2) DMEM and FBS were obtained from Gibco-Thermo (BRL Co. Ltd., USA).
(§3) another 48 h. The cells were stained with 10 μl of MTT at incubator for approximately 4 h. The medium was discarded and replaced by 100 mL DMSO. The O.D. value was read at 570/630 nm with a spectrophotometer.

MDA-MB-231 cells = experiment: Cell viability (MTT) assay, MDA-MB-231; settings: Homo sapiens, MDA-MB-231, 48 h, read-out: Antiproliferative IC50, MDA-MB-231
Experimental: Section S 1.3 Cell viability assays
as §1, §2, §3

SW480 cells = experiment: Cell viability (MTT) assay, SW480; settings: Homo sapiens, SW480, 48 h, read-out: Antiproliferative IC50, SW480
Experimental: Section S 1.3 Cell viability assays
as §1, §2, §3

HDAC1 = HDAC1 (Homo sapiens, UniProt Q13547); experiment: HDAC isoform selectivity assay, HDAC1; type: biochemical
HDAC4 = HDAC4 (Homo sapiens, UniProt P56524); experiment: HDAC isoform selectivity assay, HDAC4; type: biochemical; settings: read-out: HDAC4 % inhibition rate at 10 μM
rhIDO1 = biological target: T1, rhIDO1 (Homo sapiens, UniProt P14902); experiment: IDO1 inhibition assay; type: biochemical; settings: means ± S.D. of three independent experiments
T1 construct: purchased
Experimental: Section S1. Biological assays […]
Section S 1.2 IDO1 inhibition assays
IDO1 inhibition assays were carried out according to the manufacturers’ procedures, as described previously. The standard assay mixture (100 μL) contained 50 mM of potassium phosphate buffer (pH = 6.5), 10 mM ascorbate, 10 μM methylene blue, 100 μg/mL catalase, 1 mM L-tryptophan and 10 μg/mL of rhIDO1. The plate was incubated at 37 °C in a dark environment, and reactions were terminated after 60 min by the addition of 50 μL of fluorogenic developer solution and further incubated at 45 °C in dark for 3 h. Then, the plate was allowed to cool to room temperature for at least 1 h. After centrifugation at 1500g for 5 min at 20 °C, the fluorescence […]
M1000 Pro, Tecan US, Morrisville, NC) in an end-point mode. […]

HDAC11 = biological target: T2, HDAC11 (Homo sapiens, UniProt Q96DB2); experiment: HDAC isoform selectivity assay, HDAC11; type: biochemical
T2 sequence (Q96DB2 1-347): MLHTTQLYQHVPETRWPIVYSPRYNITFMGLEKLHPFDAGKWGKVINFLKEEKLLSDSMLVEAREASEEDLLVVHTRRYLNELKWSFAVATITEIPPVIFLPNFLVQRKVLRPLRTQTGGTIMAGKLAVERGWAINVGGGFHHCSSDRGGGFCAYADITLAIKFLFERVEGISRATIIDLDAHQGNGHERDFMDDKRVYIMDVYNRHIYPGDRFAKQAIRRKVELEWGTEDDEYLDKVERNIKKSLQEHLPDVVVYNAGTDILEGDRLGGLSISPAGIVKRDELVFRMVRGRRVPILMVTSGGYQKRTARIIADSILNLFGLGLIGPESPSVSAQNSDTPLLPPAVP

MCF-7 cells = experiment: Cell viability (MTT) assay, MCF-7; settings: Homo sapiens, MCF7, 48 h, read-out: Antiproliferative IC50, MCF-7
Experimental: Section S 1.3 Cell viability assays
as §1, §2, §3

[1] = biological target: T3, HDAC6 human recombinant enzyme (Homo sapiens, UniProt Q9UBN7); experiment: HDAC6 enzyme inhibitory activity assay; type: biochemical; settings: for inhibition at 1 µM: read-out: HDAC6 Inhibition Rate at 1 μM
T3 sequence (Q9UBN7 1-1215): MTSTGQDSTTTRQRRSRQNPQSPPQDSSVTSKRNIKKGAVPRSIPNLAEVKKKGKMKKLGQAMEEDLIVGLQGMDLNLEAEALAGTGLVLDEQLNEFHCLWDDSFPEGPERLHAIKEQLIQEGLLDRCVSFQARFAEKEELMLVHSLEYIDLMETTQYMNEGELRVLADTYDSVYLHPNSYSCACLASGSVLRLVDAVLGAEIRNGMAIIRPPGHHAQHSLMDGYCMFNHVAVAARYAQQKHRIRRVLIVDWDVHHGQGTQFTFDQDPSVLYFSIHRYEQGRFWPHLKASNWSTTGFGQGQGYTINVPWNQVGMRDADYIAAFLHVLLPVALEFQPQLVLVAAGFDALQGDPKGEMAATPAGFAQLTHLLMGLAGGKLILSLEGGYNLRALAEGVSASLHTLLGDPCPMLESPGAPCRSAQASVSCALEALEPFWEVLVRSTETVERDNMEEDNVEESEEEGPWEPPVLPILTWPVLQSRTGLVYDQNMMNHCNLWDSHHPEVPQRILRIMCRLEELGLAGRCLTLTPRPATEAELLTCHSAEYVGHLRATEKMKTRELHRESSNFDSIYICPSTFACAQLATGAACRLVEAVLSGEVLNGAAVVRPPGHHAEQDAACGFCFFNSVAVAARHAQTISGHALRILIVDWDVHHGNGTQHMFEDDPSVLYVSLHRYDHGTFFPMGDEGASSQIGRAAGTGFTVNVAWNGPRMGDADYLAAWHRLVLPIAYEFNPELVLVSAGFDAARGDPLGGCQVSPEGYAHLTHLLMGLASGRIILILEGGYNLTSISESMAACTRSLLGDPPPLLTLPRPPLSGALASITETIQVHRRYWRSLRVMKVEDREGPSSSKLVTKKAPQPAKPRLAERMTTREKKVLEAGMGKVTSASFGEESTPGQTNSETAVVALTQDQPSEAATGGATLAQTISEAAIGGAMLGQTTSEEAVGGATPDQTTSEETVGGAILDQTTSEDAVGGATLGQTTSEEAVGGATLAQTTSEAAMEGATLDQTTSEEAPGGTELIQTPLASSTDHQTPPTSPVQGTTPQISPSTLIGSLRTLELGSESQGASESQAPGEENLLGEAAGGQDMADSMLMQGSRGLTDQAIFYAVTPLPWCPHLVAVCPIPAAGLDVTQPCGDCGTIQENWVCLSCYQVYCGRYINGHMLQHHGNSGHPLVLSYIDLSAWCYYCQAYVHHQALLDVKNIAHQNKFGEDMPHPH
Experimental: Section S1. Biological assays
Section S 1.1. HDAC6 enzyme inhibitory activity assay
Preparation of Master Mix. Trichostatin A in DMSO, Fluorogenic HDAC substrate 3, and HDAC6 human recombinant enzyme were diluted to 20 μM, 200 μM, and 7 ng/uL, respectively, using HDAC Assay Buffer.BSA was dissolved in 1 mL of distilled water to make a BSA solution at a concentration of 1 mg/mL. A certain amount of Fluorogenic HDAC substrate 3, BSA and HDAC Assay Buffer were mixed well to make a master mix, and 40 μL of the master mix was added to each well of a 96-well plate. In the drug administration group, 5 μL of Trichostatin A in DMSO and HDAC6 human recombinant enzyme were added to each well. 5 μL of HDAC Assay Buffer and HDAC6 human recombinant enzyme were added to each well of the blank group, and incubated for 30 min at 37 °C. Finally, 50 μL of undiluted HDAC substrate 3, BSA and HDAC Assay Buffer were added to each well. 50 μL of 2x HDAC Developer was added to each well and incubated at room temperature for 15 min. The samples were read in an enzyme marker with an excitation wavelength in the range of 350-380 nm and an emission light in the range of 440-460 nm.
The values of fluorescence intensities were read and the inhibition rate and IC50 were calculated. […]

[2] = set-up: method as in PMID 32815366; settings: cell line not given; cited from earlier work
[3] = Cell viability assay, HK2 normal renal cells; settings: human
Source text: On the basis of the IDO1 and HDAC activities, we explored the proliferation inhibitory activities of the selected compounds against four solid tumor cells lines.

T1 sequence (P14902 whole entry): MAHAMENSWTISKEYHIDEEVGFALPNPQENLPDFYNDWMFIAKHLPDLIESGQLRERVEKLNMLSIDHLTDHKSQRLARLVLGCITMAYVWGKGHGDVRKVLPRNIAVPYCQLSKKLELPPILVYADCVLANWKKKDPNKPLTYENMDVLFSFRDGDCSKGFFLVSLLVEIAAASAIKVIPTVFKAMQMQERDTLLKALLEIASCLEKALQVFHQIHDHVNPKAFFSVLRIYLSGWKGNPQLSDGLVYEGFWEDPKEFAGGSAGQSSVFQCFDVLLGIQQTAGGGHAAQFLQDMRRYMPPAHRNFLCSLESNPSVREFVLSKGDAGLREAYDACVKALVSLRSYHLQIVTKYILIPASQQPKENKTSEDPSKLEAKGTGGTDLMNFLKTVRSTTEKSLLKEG
Chain of HDAC1 (Q13547 whole entry, species assumed, canonical isoform): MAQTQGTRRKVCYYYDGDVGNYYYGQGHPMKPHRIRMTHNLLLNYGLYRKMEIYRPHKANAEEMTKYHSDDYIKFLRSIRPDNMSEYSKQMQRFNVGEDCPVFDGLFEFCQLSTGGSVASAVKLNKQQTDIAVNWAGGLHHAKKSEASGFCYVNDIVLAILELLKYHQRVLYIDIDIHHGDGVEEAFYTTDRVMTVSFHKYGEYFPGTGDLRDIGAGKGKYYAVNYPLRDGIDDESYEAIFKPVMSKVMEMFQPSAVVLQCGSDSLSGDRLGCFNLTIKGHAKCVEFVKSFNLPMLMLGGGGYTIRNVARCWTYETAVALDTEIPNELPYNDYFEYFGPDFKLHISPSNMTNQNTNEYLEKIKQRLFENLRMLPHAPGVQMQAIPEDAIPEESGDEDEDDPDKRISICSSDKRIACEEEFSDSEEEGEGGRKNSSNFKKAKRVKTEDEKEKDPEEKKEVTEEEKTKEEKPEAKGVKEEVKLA
Chain of HDAC4 (P56524 whole entry, species assumed, canonical isoform): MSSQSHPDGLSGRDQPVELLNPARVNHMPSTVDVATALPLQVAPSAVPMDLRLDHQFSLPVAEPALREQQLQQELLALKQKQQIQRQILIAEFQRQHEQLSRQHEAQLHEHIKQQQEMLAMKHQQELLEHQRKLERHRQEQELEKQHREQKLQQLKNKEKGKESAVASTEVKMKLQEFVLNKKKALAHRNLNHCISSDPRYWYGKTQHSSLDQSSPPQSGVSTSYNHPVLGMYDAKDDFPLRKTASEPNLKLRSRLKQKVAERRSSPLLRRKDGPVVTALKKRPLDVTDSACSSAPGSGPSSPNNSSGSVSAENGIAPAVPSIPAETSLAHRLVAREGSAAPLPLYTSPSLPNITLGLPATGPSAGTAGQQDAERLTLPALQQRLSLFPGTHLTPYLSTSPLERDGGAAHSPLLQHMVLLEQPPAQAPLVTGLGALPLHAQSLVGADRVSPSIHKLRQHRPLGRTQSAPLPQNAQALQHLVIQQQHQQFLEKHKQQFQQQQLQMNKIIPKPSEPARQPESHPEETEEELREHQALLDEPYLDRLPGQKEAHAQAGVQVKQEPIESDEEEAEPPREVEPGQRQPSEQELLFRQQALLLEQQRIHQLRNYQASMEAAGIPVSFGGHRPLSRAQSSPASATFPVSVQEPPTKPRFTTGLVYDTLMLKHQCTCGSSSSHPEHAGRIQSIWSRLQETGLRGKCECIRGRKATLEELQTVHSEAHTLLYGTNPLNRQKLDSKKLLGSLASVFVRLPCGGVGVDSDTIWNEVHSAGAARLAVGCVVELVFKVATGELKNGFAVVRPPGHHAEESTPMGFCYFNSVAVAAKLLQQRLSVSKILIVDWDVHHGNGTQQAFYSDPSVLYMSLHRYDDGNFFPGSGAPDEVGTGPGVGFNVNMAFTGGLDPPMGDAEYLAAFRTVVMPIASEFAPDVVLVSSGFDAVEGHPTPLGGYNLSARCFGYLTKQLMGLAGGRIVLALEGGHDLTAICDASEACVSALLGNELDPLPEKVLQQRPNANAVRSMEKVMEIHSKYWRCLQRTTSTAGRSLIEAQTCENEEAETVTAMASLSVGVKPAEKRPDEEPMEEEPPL

| SMILES | IC50 (HCT-116 cells) | IC50 (MDA-MB-231 cells) | IC50 (SW480 cells) | IC50 (HDAC1) | inhibition at 10 µM (HDAC4) | IC50 (rhIDO1) | inhibition at 10 µM (HDAC11; read-out: HDAC11 % inhibition rate at 10 μM) | IC50 (MCF-7 cells) | IC50 [1] | Selectivity Index (SI) = HDAC1 IC50 value/HDAC6 IC50 value [1] | inhibition at 1 µM [1] | IC50 (HDAC11) | concentration at which cytotoxicity begins [2] | IC50 [3] |
| --- | --- | --- | --- | --- | --- | --- | --- | --- | --- | --- | --- | --- | --- | --- |
| Cc1ccc(-c2csc3ncc(C(=O)Nc4ccc(NCCCCCCC(=O)NO)cc4)n23)cc1 [Compound 10k, N-{4-[(7-(hydroxyamino)-7-oxoheptyl)amino]phenyl}-3-(p-tolyl)imidazo[2,1-b]thiazole-5-carboxamide] | > 80 µM | > 80 µM | > 80 µM | 1.19 µM | 9.68% | 0.16 ± 0.03 µM | 29.8% | > 80 µM | 0.391 µM | 3.04 | 70.7% |  |  |  |
| O=C(NO)c1ccc(CNC(=O)c2cnc3scc(-c4ccc(Br)cc4)n23)cc1 [Compound 7a, 3-(4-Bromophenyl)-N-[4-(hydroxycarbamoyl)benzyl]imidazo[2,1-b]thiazole-5-carboxamide] | > 80 µM | > 80 µM | > 80 µM | 2.45 µM | 31.5% | 0.53 ± 0.11 µM |  | > 80 µM | 0.0844 µM | 29.00 | 85.6% | 6.06 µM |  |  |
| CCCCN(Cc1ccc(C(=O)NO)cc1)C(=O)Nc1ccccc1 [NextA] |  |  |  |  |  |  |  |  |  |  |  |  | 10 µM |  |
| O=C(O)c1cnc2scc(-c3ccc(Br)cc3)n12 [5a] | > 80 µM | > 80 µM | > 80 µM |  |  | 6.52 ± 0.45 µM |  | > 80 µM |  |  |  |  |  | > 80 µM |
| NCc1ccc(NC(=O)N(CCCCO)Cc2ccc(C(=O)NO)cc2)cc1 [Suprastat] |  |  |  |  |  |  |  |  |  |  |  |  | > 25 µM |  |
